Source: US20230322761A1, “DEGRADATION OF BRUTON'S TYROSINE KINASE (BTK) BY CONJUGATION OF BTK INHIBITORS WITH E3 LIGASE LIGAND AND METHODS OF USE” (BEIGENE, LTD., priority 2020, published 2023)
Values joined by “and” are separate entries in the source; they are usually repeats but may differ in a detail not shown here. Equal entries are not always repeated.

Each compound was assayed against T1, BTK (Homo sapiens, UniProt Q06187) (assay: BTK degradation in TMD-8 cells, HTRF assay after 6 h treatment). Conditions: IC50 (DC50) of BTK degradation.
T1 construct: endogenous in cells; host or cells: TMD-8 cells
Format: cell-based
Outline: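 TMD-8 cells treated for 6 h with 8 compound doses in 6-fold dilution steps from a 1 mM 500× DMSO stock (0.2% DMSO), then lysed 30 min at room temperature. BTK in lysate detected by HTRF (665/620 nm) after overnight antibody incubation; DC50 from four-parameter curve fit.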

T1 sequence (Q06187 whole entry): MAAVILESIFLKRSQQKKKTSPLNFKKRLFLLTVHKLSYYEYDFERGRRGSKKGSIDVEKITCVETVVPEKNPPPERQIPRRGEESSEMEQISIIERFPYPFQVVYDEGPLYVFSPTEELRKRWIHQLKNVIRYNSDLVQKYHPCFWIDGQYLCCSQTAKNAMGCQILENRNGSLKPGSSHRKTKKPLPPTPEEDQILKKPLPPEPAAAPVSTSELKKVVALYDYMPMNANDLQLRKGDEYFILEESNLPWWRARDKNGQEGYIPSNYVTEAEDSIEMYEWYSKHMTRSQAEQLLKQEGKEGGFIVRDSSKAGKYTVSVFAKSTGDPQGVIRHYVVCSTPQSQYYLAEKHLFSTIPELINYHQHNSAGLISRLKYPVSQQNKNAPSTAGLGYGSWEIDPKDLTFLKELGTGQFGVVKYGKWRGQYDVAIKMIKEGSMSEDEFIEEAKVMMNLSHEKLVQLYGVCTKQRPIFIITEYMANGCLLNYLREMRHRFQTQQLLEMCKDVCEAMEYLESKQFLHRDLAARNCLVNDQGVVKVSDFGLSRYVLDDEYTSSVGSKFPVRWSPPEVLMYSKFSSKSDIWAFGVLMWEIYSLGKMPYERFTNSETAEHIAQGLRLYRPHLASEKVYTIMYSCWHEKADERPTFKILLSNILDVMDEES

DC50 | Structure (SMILES)
2.6 nM | Cc1cc(-c2n[nH]c3ncc(-c4ccc(N5CCN(CC6CCN(c7ccc(N8CCC(=O)NC8=O)c(C)c7)CC6)CC5)cc4)cc23)ccc1[C@@H](C)NC(=O)c1noc(C(C)(C)C)n1 [Example 39, (R)-5-(tert-butyl)-N-(1-(4-(5-(4-(4-((1-(4-(2,4-dioxotetrahydropyrimidin-1(2H)-yl)-3-methylphenyl)piperidin-4-yl)methyl)piperazin-1-yl)phenyl)-1H-pyrazolo[3,4-b]pyridin-3-yl)-2-methylphenyl)ethyl)-1,2,4-oxadiazole-3-carboxamide]
7.32 nM | Cc1cc(CCN2CCN(c3ccc(-c4cnc5[nH]nc(-c6ccc([C@@H](C)NC(=O)c7noc(C(C)(C)C)n7)c(C)c6)c5c4)cc3)CC2)ccc1C1CCC(=O)NC1=O (stereo partly drawn) [Example 40, 5-(tert-butyl)-N-((1R)-1-(4-(5-(4-(4-(4-(2,6-dioxopiperidin-3-yl)-3-methylphenethyl)piperazin-1-yl)phenyl)-1H-pyrazolo[3,4-b]pyridin-3-yl)-2-methylphenyl)ethyl)-1,2,4-oxadiazole-3-carboxamide]
7.05 nM | Cc1cc(-c2n[nH]c3ncc(-c4ccc(N5CCN(CC6CCN(c7ccc(N8CCC(=O)NC8=O)cc7)CC6)CC5)cc4)cc23)ccc1CNC(=O)c1noc(C(C)(C)C(F)(F)F)n1 [Example 41, N-(4-(5-(4-(4-((1-(4-(2,4-dioxotetrahydropyrimidin-1(2H)-yl)phenyl)piperidin-4-yl)methyl)piperazin-1-yl)phenyl)-1H-pyrazolo[3,4-b]pyridin-3-yl)-2-methylbenzyl)-5-(1,1,1-trifluoro-2-methylpropan-2-yl)-1,2,4-oxadiazole-3-carboxamide]
22.8 nM | Cc1cc(-c2n[nH]c3ncc(-c4ccc(N5CCN(CC6CCN(c7ccc(N8CCC(=O)NC8=O)cc7)CC6)CC5)cc4)cc23)ccc1CNC(=O)c1noc(C2(C(F)(F)F)CC2)n1 [Example 42, N-(4-(5-(4-(4-((1-(4-(2,4-dioxotetrahydropyrimidin-1(2H)-yl)phenyl)piperidin-4-yl)methyl)piperazin-1-yl)phenyl)-1H-pyrazolo[3,4-b]pyridin-3-yl)-2-methylbenzyl)-5-(1-(trifluoromethyl)cyclopropyl)-1,2,4-oxadiazole-3-carboxamide]
3.44 nM | Cc1c([C@@H](C)NC(=O)c2noc(C(C)(C)C)n2)ccc(-c2n[nH]c3ncc(-c4ccc(N5CCN(CC6CCN(c7ccc(N8CCC(=O)NC8=O)cc7)CC6)CC5)cc4)cc23)c1F [Example 43, (R)-5-(tert-butyl)-N-(1-(4-(5-(4-(4-((1-(4-(2,4-dioxotetrahydropyrimidin-1(2H)-yl)phenyl)piperidin-4-yl)methyl)piperazin-1-yl)phenyl)-1H-pyrazolo[3,4-b]pyridin-3-yl)-3-fluoro-2-methylphenyl)ethyl)-1,2,4-oxadiazole-3-carboxamide]
6.02 nM | Cc1cc(-c2n[nH]c3ncc(-c4ccc(N5CCN(CC6CCN(c7ccc(N8CCC(=O)NC8=O)cc7)CC6)CC5)cc4)cc23)c(F)cc1[C@@H](C)NC(=O)c1noc(C(C)(C)C)n1 [Example 44, (R)-5-(tert-butyl)-N-(1-(4-(5-(4-(4-((1-(4-(2,4-dioxotetrahydropyrimidin-1(2H)-yl)phenyl)piperidin-4-yl)methyl)piperazin-1-yl)phenyl)-1H-pyrazolo[3,4-b]pyridin-3-yl)-5-fluoro-2-methylphenyl)ethyl)-1,2,4-oxadiazole-3-carboxamide]
2.15 nM | Cc1c([C@@H](C)NC(=O)c2nc(C(C)(C)C)no2)ccc(-c2n[nH]c3ncc(-c4ccc(N5CCN(CC6CCN(c7ccc(N8CCC(=O)NC8=O)cc7)CC6)CC5)cc4)cc23)c1F [Example 45, (R)-3-(tert-butyl)-N-(1-(4-(5-(4-(4-((1-(4-(2,4-dioxotetrahydropyrimidin-1(2H)-yl)phenyl)piperidin-4-yl)methyl)piperazin-1-yl)phenyl)-1H-pyrazolo[3,4-b]pyridin-3-yl)-3-fluoro-2-methylphenyl)ethyl)-1,2,4-oxadiazole-5-carboxamide]
5.13 nM | Cc1cc(-c2n[nH]c3ncc(-c4ccc(N5CCN(CC6CCN(c7ccc(N8CCC(=O)NC8=O)cc7)CC6)CC5)cc4)cc23)c(F)cc1[C@@H](C)NC(=O)c1nc(C(C)(C)C)no1 [Example 46, (R)-3-(tert-butyl)-N-(1-(4-(5-(4-(4-((1-(4-(2,4-dioxotetrahydropyrimidin-1(2H)-yl)phenyl)piperidin-4-yl)methyl)piperazin-1-yl)phenyl)-1H-pyrazolo[3,4-b]pyridin-3-yl)-5-fluoro-2-methylphenyl)ethyl)-1,2,4-oxadiazole-5-carboxamide]
4.76 nM | Cc1cc(-c2n[nH]c3ncc(-c4ccc(N5CCN(CCC6CCN(c7ccc(C8CCC(=O)NC8=O)c(F)c7)CC6)CC5)cc4)cc23)ccc1CNC(=O)c1noc(C(C)(C)C)n1 (stereo not drawn) [Example 48, 5-(tert-butyl)-N-(4-(5-(4-(4-(2-(1-(4-(2,6-dioxopiperidin-3-yl)-3-fluorophenyl)piperidin-4-yl)ethyl)piperazin-1-yl)phenyl)-1H-pyrazolo[3,4-b]pyridin-3-yl)-2-methylbenzyl)-1,2,4-oxadiazole-3-carboxamide]
4.65 nM | COc1cc(N2CCC(CN3CCN(c4ccc(-c5cnc6[nH]nc(-c7ccc(CNC(=O)c8noc(C(C)(C)C)n8)c(C)c7)c6c5)cc4)CC3)CC2)ccc1N1CCC(=O)NC1=O [Example 50, 5-(tert-butyl)-N-(4-(5-(4-(4-((1-(4-(2,4-dioxotetrahydropyrimidin-1(2H)-yl)-3-methoxyphenyl)piperidin-4-yl)methyl)piperazin-1-yl)phenyl)-1H-pyrazolo[3,4-b]pyridin-3-yl)-2-methylbenzyl)-1,2,4-oxadiazole-3-carboxamide]
3.83 nM | Cc1cc(-c2n[nH]c3ncc(-c4ccc(N5CCN(CCc6ccc(C7CCC(=O)NC7=O)c(Cl)c6)CC5)cc4)cc23)ccc1CNC(=O)c1noc(C(C)(C)C)n1 (stereo not drawn) [Example 51, 5-(tert-butyl)-N-(4-(5-(4-(4-(3-chloro-4-(2,6-dioxopiperidin-3-yl)phenethyl)piperazin-1-yl)phenyl)-1H-pyrazolo[3,4-b]pyridin-3-yl)-2-methylbenzyl)-1,2,4-oxadiazole-3-carboxamide]
4.22 nM | Cc1cc(-c2n[nH]c3ncc(-c4ccc(C5CCN(CC6CCN(c7ccc(N8CCC(=O)NC8=O)cc7)CC6)CC5)nc4)cc23)ccc1CNC(=O)c1noc(C(C)(C)C)n1 [Example 63, 5-(tert-butyl)-N-(4-(5-(6-(1-((1-(4-(2,4-dioxotetrahydropyrimidin-1(2H)-yl)phenyl)piperidin-4-yl)methyl)piperidin-4-yl)pyridin-3-yl)-1H-pyrazolo[3,4-b]pyridin-3-yl)-2-methylbenzyl)-1,2,4-oxadiazole-3-carboxamide]
7.67 nM | Cc1cc(-c2n[nH]c3ncc(-c4ccc(N5CCN(CC6CCN(c7ccc(N8CCC(=O)NC8=O)cc7)CC6)CC5)nc4)cc23)ccc1CNC(=O)c1noc(C(C)(C)C)n1 [Example 65, 5-(tert-butyl)-N-(4-(5-(6-(4-((1-(4-(2,4-dioxotetrahydropyrimidin-1(2H)-yl)phenyl)piperidin-4-yl)methyl)piperazin-1-yl)pyridin-3-yl)-1H-pyrazolo[3,4-b]pyridin-3-yl)-2-methylbenzyl)-1,2,4-oxadiazole-3-carboxamide]
5.32 nM | Cc1cc(-c2n[nH]c3ncc(-c4ccc(N5CCN(CC6CCN(c7ccc(N8CCC(=O)NC8=O)cc7)CC6)CC5)cn4)cc23)ccc1CNC(=O)c1noc(C(C)(C)C)n1 [Example 66, 5-(tert-butyl)-N-(4-(5-(5-(4-((1-(4-(2,4-dioxotetrahydropyrimidin-1(2H)-yl)phenyl)piperidin-4-yl)methyl)piperazin-1-yl)pyridin-2-yl)-1H-pyrazolo[3,4-b]pyridin-3-yl)-2-methylbenzyl)-1,2,4-oxadiazole-3-carboxamide]
1.47 nM | Cc1cc(-c2n[nH]c3ncc(-c4ccc(N5CCN(CC6CCN(c7ccc(N8CCC(=O)NC8=O)cc7)CC6)CC5)nc4)cc23)ccc1CNC(=O)c1nc(C(C)(C)C)no1 [Example 68, 3-(tert-butyl)-N-(4-(5-(6-(4-((1-(4-(2,4-dioxotetrahydropyrimidin-1(2H)-yl)phenyl)piperidin-4-yl)methyl)piperazin-1-yl)pyridin-3-yl)-1H-pyrazolo[3,4-b]pyridin-3-yl)-2-methylbenzyl)-1,2,4-oxadiazole-5-carboxamide]
2.5 nM and 2.37 nM | Cc1cc(-c2n[nH]c3ncc(-c4ccc(N5CCN(CC6CCN(c7ccc(N8CCC(=O)NC8=O)c(C)c7)CC6)CC5)nc4)cc23)ccc1CNC(=O)c1noc(C(C)(C)C)n1 [Example 69, 5-(tert-butyl)-N-(4-(5-(6-(4-((1-(4-(2,4-dioxotetrahydropyrimidin-1(2H)-yl)-3-methylphenyl)piperidin-4-yl)methyl)piperazin-1-yl)pyridin-3-yl)-1H-pyrazolo[3,4-b]pyridin-3-yl)-2-methylbenzyl)-1,2,4-oxadiazole-3-carboxamide]
4.03 nM | Cc1cc(-c2n[nH]c3ncc(-c4ccc(C5CCN(CC6CCN(c7ccc(N8CCC(=O)NC8=O)cc7)CC6)CC5)nc4)cc23)ccc1[C@@H](C)NC(=O)c1noc(C(C)(C)C)n1 [Example 71, (R)-5-(tert-butyl)-N-(1-(4-(5-(6-(1-((1-(4-(2,4-dioxotetrahydropyrimidin-1(2H)-yl)phenyl)piperidin-4-yl)methyl)piperidin-4-yl)pyridin-3-yl)-1H-pyrazolo[3,4-b]pyridin-3-yl)-2-methylphenyl)ethyl)-1,2,4-oxadiazole-3-carboxamide]
1.21 nM | Cc1cc(-c2n[nH]c3ncc(-c4ccc(C5CCN(CC6CCN(c7ccc(N8CCC(=O)NC8=O)cc7)CC6)CC5)cn4)cc23)ccc1[C@@H](C)NC(=O)c1noc(C(C)(C)C)n1 [Example 72, (R)-5-(tert-butyl)-N-(1-(4-(5-(5-(1-((1-(4-(2,4-dioxotetrahydropyrimidin-1(2H)-yl)phenyl)piperidin-4-yl)methyl)piperidin-4-yl)pyridin-2-yl)-1H-pyrazolo[3,4-b]pyridin-3-yl)-2-methylphenyl)ethyl)-1,2,4-oxadiazole-3-carboxamide]
